Laboratory results: patent US8377986B2, “Amino acid derivatives” (Proximagen Ltd., priority 2007, dated 2013)

Experiment: Pharmacokinetic analysis: apparent half-life of L-Dopa in rat plasma after dosing prodrug co-dosed with Benserazide
Format: in vivo
Conditions: male Wistar rats, L-Dopa generated from prodrug
Method: The compound of the invention (I) and comparison compounds (II-VII) were tested in an assay which measures parameters relevant to the pharmacokinetic profile of the test compound. The assay measured the length of time L-dopa remained in the blood of test animals Naïve male Wistar rats (bodyweight=250-500 g) were used for the pharmacokinetic studies. Animals were fasted overnight. The compound of interest was dissolved in 0.9% saline and co-dosed with Benserazide (10 mg/kg) at a molecular weight equivalent dose to 12.5 mg/kg L-Dopa. Blood samples were taken via a butterfly needle located into the lateral tail vein and collected into sample tubes containing heparin as the anti-coagulant. Blood samples were centrifuged at 5000 rpm for 10 minutes; the supernatant plasma was removed and stored at −80° C. Stock solutions of 10 mM L-Dopa and Warfarin were prepared in 20% TFA, 10 mM sodium meta bisulphite and DMSO, respectively. […] Quantification of L-Dopa and Warfarin was achieved by monitoring the transitions of m/z=198.075/152.1 and […], respectively. The apparent half-life of the L-Dopa generated from the prodrugs was calculated from the terminal plasma samples using non compartment models of WinNonLin (Pharsight California USA) with no weighting.

Which “apparent half-life compared with structurally analogous comparison compounds” value does the source give for `COC(=O)[C@@H](N)Cc1ccc(OC(=O)CC(C)(C)C)c(OC(=O)CC(C)(C)C)c1.Cl` [I, (S)-2-[3,4-Bis-(3,3-dimethyl-butyryloxy)-phenyl]-1-methoxycarbonyl-ethyl-ammonium chloride] here?
Its value is “significantly greater than the structurally analogous comparison compounds”.
